Square brackets hold non-standard residues; d marks the D form. Ends that are not written are not given here. Peptide text beside a SMILES is read from it. Met(O) = CS(=O)CC[C@H](N)C(=O)O

The values below come from publication PMC11727121, “Intrinsic PD‐L1 Degradation Induced by a Novel Self‐Assembling Hexapeptide for Enhanced Cancer Immunotherapy” (Advanced Science, 2024).

For one data set, the system named is MC38 cells. The data set is described as follows: MTT cytotoxicity assay, MC38 cells. The class given is cell-based, mouse. The conditions noted are these: 24 h. As for the experimental part:
(§1) In Vitro Cell Cytotoxicity and Cell Apoptosis Assay
(§2) The cytotoxicity of KFM and KFMo were assessed as follows. Briefly, 4T1, MC38 and HUVEC cells were seeded on 96-well plate (5000 cells per well) overnight.
(§3) The cells were incubated with 100 µL fresh DMEM containing with various concentration of for 24 h, respectively. Moreover, the 4T1 and MC38 tumor cells co- […]
(§4) cells viability was evaluated using the MTT assay.
(§5) Subsequently, the cells at a density of 1 × 104 were cultivated into 96-well plate and then cultured with or without H2O2 (5 µM or 100 µM) for 24 h. The cells viability was evaluated using the MTT assay. […]

Data set [1] has as its system 4T1 cells. Briefly: MTT cytotoxicity assay, 4T1 cells. The class given is cell-based, mouse. The conditions noted are these: 24 h. As for the experimental part:
as §1, §2, §3, §4, §5

The test system of another data set is HUVEC cells. The data set is described as follows: MTT cytotoxicity assay, HUVEC cells. The conditions noted are these: 24 h. The class given is cell-based, Human. As for the experimental part: as §1, §2, §3, §4, §5
Background: Formazan colour is commonly taken as a measure of viable cells.

For data set [2], the system named is 4T1 cells. Briefly: Cell apoptosis assay by flow cytometry (Annexin V / PI). The class given is cell-based, mouse. The conditions noted are these: 24 h, 5 µM MTX or equivalent, absence of H2O2. As for the experimental part: In Vitro Cell Cytotoxicity and Cell Apoptosis Assay […]
plates at a density of 2 × 10^5 cells/well.
Following incubation, all cells were harvested and
stained with Annexin V and propidium iodide (PI) according to the manufacturer's
protocol. Apoptosis was immediately analyzed using flow cytometry.

In data set [3] the test system is 4T1 cells. The data set is described as follows: In vitro immunogenic cell death assay (CRT, HMGB1). The class given is cell-based, mouse. The conditions noted are these: 12 h, fluorescence staining. As for the experimental part:
(§6) In vitro Immunogenic Cell Death Assay […]
(§7) presence of DAMPs within indicated treatments were examined by calreticulin (CRT) and high mobility group box 1 protein (HMGB1) expression level. Firstly, 5 × 104 […]
(§8) And then, fixed with 4% formaldehyde for 30 min at room temperature, and washed twice with PBS. A blocking solution of 10% goat serum was added to the wells and incubated for 50 min to minimize nonspecific antibody adsorption. The cells were treated with primary antibodies overnight at 4 ℃, subsequently, stained with FITC -labeled secondary antibodies for 2 h, followed by mounting solution with DAPI, images captured by fluorescence microscopy (Leica DMI3000B). The fluorescence intensity was analyzed using Image J.
(§9) Western Blotting Analysis
(§10) Cellular proteins were extracted with the lysis buffer containing 8 M urea, 0.05 M Tris-HCl (pH 7.5), 1% β-Mercaptoethanol, 1% protease inhibitor, and 1% phosphatase inhibitor, while tumor protein was extracted with the medium RIPA lysis buffer containing 1% protease inhibitor and 1% phosphatase inhibitors by 1-minute ultrasonication, then kept on ice for 30 minutes and microcentrifugated at 12,000 g for 15 minutes at 4 ℃ to remove debris. Immunoblotting was performed using 30 µg and 50 μg of protein lysates from cells and tumors, respectively . […]

A further data set deals with MC38 tumor. Briefly: In vivo antitumor study in MC38 tumor-bearing mice. The conditions noted are these: MC38 model, peritumoral, MTX 1.5 mg/kg, MET 69.5 mg/kg equivalents, day 0 and 3, n = 5.
Data set [4] has as its system PD-L1. Briefly: Western blot analysis of PD-L1 expression in 4T1 cells. The class given is cell-based, mouse. As for the experimental part:
as §6, §7, §8, §9, §10

For data set [5], the system named is PD-L1. Briefly: Western blot analysis of PD-L1 expression in MC38 cells. The class given is cell-based, mouse. The conditions noted are these: compared to PBS control. As for the experimental part:
as §6, §7, §8, §9, §10
For orientation: Immunoblotting shows a protein as a band on a membrane.

On to `C[S+]([O-])CC[C@H](NC(=O)[C@H](Cc1ccccc1)NC(=O)[C@H](CC[S+](C)[O-])NC(=O)[C@H](Cc1ccccc1)NC(=O)[C@@H](N)CCCCN)C(=O)N[C@@H](CCCCN)C(N)=O` (stereo partly shown) [KFM°] (H-KF[Met(O)]F[Met(O)]K-NH2), for which the “cytotoxicity of peptide (MTT)” value in the data set on MC38 cells, in the data set on 4T1 cells [1] and in the data set on HUVEC cells was “negligible cytotoxicity” throughout.
Regarding “KFMFMK-NH2 [KFM, Lys‐Phe‐Met‐Phe‐Met‐Lys]”, the “cytotoxicity of peptide (MTT)” value in the data set with MC38 cells, in the data set on 4T1 cells [1] and in the data set with HUVEC cells was “negligible cytotoxicity” throughout.
For `O=C1c2c(O)ccc(O)c2C(=O)c2c(NCCNCCO)ccc(NCCNCCO)c21` [MTX, mitoxantrone], the “cytotoxicity of MTX formulations (MTT)” value in the data set on MC38 cells (without H2O2) and in the data set on 4T1 cells [1] (without H2O2) was “dose‐dependent cytotoxicity” throughout. In addition, the “percentage of apoptotic cells” value in the data set with 4T1 cells [2] amounted to 61.3%. Moreover, the “CRT expression compared to PBS control, in words” value with 4T1 cells [3] is “marked increase”. In addition, the tumor growth result in the data set on MC38 tumor is “partially slowed tumor growth”.
Turning to `CN(C)C(=N)N=C(N)N` [MET, metformin], the “PD-L1 expression (Western blot), in words” value in the data set on PD-L1 [4] and in the data set on PD-L1 [5] was “reduced” each time.
